Legend:
RAW264.7 [1] = experiment: Anti-inflammatory activity in mouse RAW264.7 cells assessed as inhibition of LPS-induced TNF-alpha production at 2.5 uM pretreated with compound for 2 hrs followed by LPS addition and measured after 22 hrs by ELISA relative to control; format: functional; settings: time 24 hrs
[2] = Cytotoxicity against mouse RAW264.7 cells assessed as survival rate at 2.5 uM incubated overnight by CCK-8 assay relative to control; format: toxicity, cell-based; settings: read-out: Survival
RAW264.7 [3] = experiment: Anti-inflammatory activity in mouse RAW264.7 cells assessed as inhibition of LPS-induced IL-6 production at 2.5 uM pretreated with compound for 2 hrs followed by LPS addition and measured after 22 hrs by ELISA relative to control; format: functional; settings: time 24 hrs

SMILES | inhibition at 2.5 µM (RAW264.7 [1]) [%] | viability at 2.5 µM [2] [%] | inhibition at 2.5 µM (RAW264.7 [3]) [%]
O=C1/C(=C/c2ccc(N3CCOCC3)nc2)CCc2ccc(O)cc21 | 30.8 | 104 | 48
O=C1/C(=C/c2ccc(N3CCOCC3)nc2)CCc2ccc(F)cc21 | 23.8 | 99.8 | 40.2
COc1ccc2c(c1)C(=O)/C(=C/c1ccc(N3CCN(C)CC3)cn1)CC2 | 35.3 | 89 | 51.6
CN1CCN(c2ccc(/C=C3\CCc4ccc(F)cc4C3=O)cc2)CC1 | 37.3 | 91.5 | 57.3
O=C1/C(=C/c2ccc(-n3ccnc3)cc2)CCc2ccc(O)cc21 | 25.3 | 87.1 | 50.2
O=C1/C(=C/c2ccc(N3CCOCC3)cc2)CCc2cc(F)ccc21 | 32.1 | 81.1 | 48.7
CN1CCN(c2ccc(/C=C3\CCc4ccc(F)cc4C3=O)nc2)CC1 | 30.5 | 93.5 | 47.2
O=C1/C(=C/c2ccc(-n3ccnc3)cc2)CCc2ccc(F)cc21 | 19 | 98 | 34.3
CN1CCN(c2ccc(/C=C3\CCc4ccc(Br)cc4C3=O)cc2)CC1 | 49.8 | 116 | 62.6
O=C1/C(=C/c2ccc(-n3ccnc3)cc2)CCc2cc(Br)ccc21 | 32.4 | 82.6 | 49
O=C1/C(=C/c2ccc(N3CCOCC3)cc2)CCc2cc(Br)ccc21 | 29.6 | 92.8 | 46.4
COc1ccc2c(c1)C(=O)/C(=C/c1ccc(OC)c(C(F)(F)F)c1)CC2 | 51 | 114 | 44.2
CN1CCN(c2ccc(/C=C3\CCc4cc(Br)ccc4C3=O)cn2)CC1 | 39 | 87.8 | 54.7
CN1CCN(c2ccc(/C=C3\CCc4ccc(O)cc4C3=O)cn2)CC1 | 55.9 | 85.5 | 66.6
COc1ccc2c(c1)C(=O)/C(=C/c1ccc(-n3ccnc3)cc1)CC2 | 39.8 | 88.7 | 55.3
COc1ccc2c(c1)C(=O)/C(=C/c1ccc(N3CCN(C)CC3)nc1)CC2 | 34.7 | 84.9 | 51.1
CN1CCN(c2ccc(/C=C3\CCc4ccc(O)cc4C3=O)nc2)CC1 | 41.6 | 98.6 | 56.7
O=C1/C(=C/c2ccc(N3CCOCC3)nc2)CCc2cc(F)ccc21 | 31 | 85.2 | 47.7
COc1ccc2c(c1)C(=O)/C(=C/c1ccc(N3CCOCC3)nc1)CC2 | 27.6 | 82.4 | 44.3
O=C1/C(=C/c2ccc(-n3ccnc3)cc2)CCc2ccc(Br)cc21 | 39.8 | 91.2 | 55.3
CN1CCN(c2ccc(/C=C3\CCc4cc(Br)ccc4C3=O)cc2)CC1 | 42.4 | 87 | 53.3
O=C1/C(=C/c2ccc(N3CCOCC3)cc2)CCc2ccc(Br)cc21 | 22.4 | 82.7 | 38.6
COc1ccc2c(c1)CC/C(=C\c1ccc(N3CCN(C)CC3)nc1)C2=O | 39.6 | 88.9 | 55
CN1CCN(c2ccc(/C=C3\CCc4ccc(O)cc4C3=O)cc2)CC1 | 41.1 | 103 | 56.3
COc1ccc2c(c1)CC/C(=C\c1ccc(N3CCOCC3)cc1)C2=O | 31.6 | 89.3 | 53.1
